# Reference: patent US9670469B2, “UDP-glycosyltransferase derived from ginseng and use thereof” (KOREA ADVANCED INSTITUTE OF SCIENCE AND TECHNOLOGY, priority 2012, dated 2017)
# Columns and labels:
# PgUGT74A1 [1] = molecular target: T1, PgUGT74A1 (Panax ginseng, UniProt A0A0A6ZFR4); assay: In vitro glycosyltransferase assay with purified recombinant PgUGT74A1 and UDP-glucose; type: biochemical; conditions: for ginsenoside into which the substrate is converted by PgUGT74A1: 30 μg enzyme, 5 mM ginsenoside, 50 mM UDP-glucose, 35° C., 12 hours
# T1 construct: GST (N); made in house; host or cells: E. coli BL21-CodonPlus (DE3)-RIL
# T1 sequence (A0A0A6ZFR4 1-451): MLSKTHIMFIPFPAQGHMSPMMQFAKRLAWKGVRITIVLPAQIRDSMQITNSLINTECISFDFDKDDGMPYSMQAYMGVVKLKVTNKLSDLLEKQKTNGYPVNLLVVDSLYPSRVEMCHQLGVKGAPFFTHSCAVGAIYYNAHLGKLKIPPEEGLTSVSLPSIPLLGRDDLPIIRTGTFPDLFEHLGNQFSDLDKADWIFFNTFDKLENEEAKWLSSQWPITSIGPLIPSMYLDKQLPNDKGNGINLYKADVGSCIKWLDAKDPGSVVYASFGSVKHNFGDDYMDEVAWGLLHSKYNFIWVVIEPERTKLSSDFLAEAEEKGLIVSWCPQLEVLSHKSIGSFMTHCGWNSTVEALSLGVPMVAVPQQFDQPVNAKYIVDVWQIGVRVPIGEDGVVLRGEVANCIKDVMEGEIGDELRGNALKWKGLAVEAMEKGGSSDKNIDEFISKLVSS
# Method: (§1) A glycosyltransferase assay was performed in a reaction buffer (10 mM PBS buffer, pH 7) containing the purified PgUGT74A1 or PgUGT94B1 (30 μg), a ginsenoside compound (5 mM) and UDP-glucose (50 mM).
# (§2) The reaction mixture was incubated at 35° C. for 12 hours, and then the products were analyzed by thin-layer chromatography (TLC) or high performance liquid chromatography (HPLC).
# (§3) TLC analysis was performed using a mobile phase (acetone:methanol:DDW=65:35:10 vol/vol) and a 60F254 silica gel plate (Merck, Germany). The resolved product on the TLC plate was detected by spraying the plate with 10% (vol/vol) sulfuric acid (H2SO4) and heating it at 110° C. for 5 minutes.
# (§4) HPLC analysis was performed using ODS (2) C18 column (Phenomenex, USA). Water and acetonitrile gradient application time; and a component ratio are as follows: at a flow rate of 1 ml per minute for 0 minute, 68% water and 32% acetonitrile; 8 minutes, 35% water and 65% acetonitrile; 12 minutes, 0% water and 100% acetonitrile; 20 minutes, 0% water and 100% acetonitrile; 20.1 minutes, 68% water and 32% acetonitrile; and 28 minutes, 68% water and 32% acetonitrile.
# (§5) Ginsenosides were detected by using a UV-detector (Younglin, Korea) at a wavelength of 203 nm.
# First, the recombinant PgUGT of Example 1, PgUGT74A1, was incubated with 10 different types of ginsenosides (PPD, C-K, Rh2, F2, Rg3, Rd, Rg2, Rh1, F1 and PPT) in the presence of UDP-glucose, and the products converted by the recombinant PgUGT were analyzed by TLC.
# PgUGT94B1 [2] = molecular target: T2, PgUGT94B1 (Panax ginseng, UniProt A0A0A6ZFY4); assay: In vitro glycosyltransferase assay with purified recombinant PgUGT94B1 and UDP-glucose; type: biochemical; conditions: 30 μg enzyme, 5 mM ginsenoside, 50 mM UDP-glucose, 35° C., 12 hours
# T2 construct: GST (N); made in house; host or cells: E. coli BL21-CodonPlus (DE3)-RIL
# T2 sequence (A0A0A6ZFY4 1-442): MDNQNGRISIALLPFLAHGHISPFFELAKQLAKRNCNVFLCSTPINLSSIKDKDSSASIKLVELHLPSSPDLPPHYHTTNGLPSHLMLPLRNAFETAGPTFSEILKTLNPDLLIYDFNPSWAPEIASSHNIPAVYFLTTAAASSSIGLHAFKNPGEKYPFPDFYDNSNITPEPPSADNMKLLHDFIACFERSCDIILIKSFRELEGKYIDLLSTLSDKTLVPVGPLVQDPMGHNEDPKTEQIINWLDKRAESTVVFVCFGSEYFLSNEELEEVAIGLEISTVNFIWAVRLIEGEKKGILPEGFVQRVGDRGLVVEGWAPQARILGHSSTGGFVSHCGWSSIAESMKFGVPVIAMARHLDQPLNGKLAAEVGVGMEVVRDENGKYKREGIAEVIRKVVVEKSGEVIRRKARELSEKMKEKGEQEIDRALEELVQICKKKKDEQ
# Method: as §1, §2, §3, §4, §5
# First, the recombinant PgUGT of Example 1, PgUGT94B1, was incubated with 10 different types of ginsenosides (PPD, C-K, Rh2, F2, Rg3, Rd, Rg2, Rh1, F1 and PPT) in the presence of UDP-glucose, and then the products converted by the recombinant PgUGT were analyzed by TLC.
# PgUGT74A1 and PgUGT94B1 = assay: Both enzymes reacted with the substrate in a single reaction tube, HPLC; type: biochemical, Panax ginseng; conditions: UDP-Glc
# Method: PPD (upper panel) or C-K (lower panel) was incubated with both of PgUGT74A1 and PgUGT94B1 in the presence of UDP-Glc. Then the reaction mixture was analyzed by HPLC. […] Rg3 and Rd converted by the above two enzymes are marked as black triangles;
# as §1, §2, §4, §5
# In order to confirm this, the above two enzymes were reacted with PPD as a substrate in a single reaction tube. […] In addition, the two enzymes were reacted with C-K as a substrate in a single reaction tube.
# PgUGT74A1 [3] = assay: Quantitative RT-PCR of PgUGT74A1 in ginseng leaf after MeJA spraying; type: in vivo, Panax ginseng; conditions: ginseng leaves, 200 μM MeJA sprayed everyday for 5 days, sampled 6th day; normalized to tubulin
# Method: (§6) Total RNA was isolated from the leaf or root of 15-month-old ginseng using a spectrum plant total RNA kit (Sigma-Aldrich). 200 μM methyl jasmonate (MeJA) was sprayed onto the leaves of ginseng everyday for a total of 5 days, and samples were collected on the 6th day. The 1 μg of total RNA was used for cDNA synthesis.
# (§7) Expression levels of different genes were examined by a quantitative RT-PCR using the primer sets listed in the following Table 2, and the results were normalized to the expression level of tubulin.
# (§8) The 15-month old ginseng grown in a growth chamber under LD conditions was collected, and MeJA was sprayed onto its leaves everyday for a total of 5 days. To analyze expression level of the ginsenoside biosynthetic genes, samples were collected on the 6th days. […] However, expression of PgPPTS was not induced by MeJA under the conditions of the present invention.
# PgUGT94B1 [4] = assay: Quantitative RT-PCR of PgUGT94B1 in ginseng leaf after MeJA spraying; type: in vivo, Panax ginseng; conditions: ginseng leaves, 200 μM MeJA sprayed everyday for 5 days, sampled 6th day; normalized to tubulin
# Method: as §6, §7, §8
# [5] = tested on: PgDS (dammarenediol-II synthase); assay: Quantitative RT-PCR of PgDS in ginseng leaf after MeJA spraying; type: in vivo, Panax ginseng; conditions: ginseng leaves, 200 μM MeJA sprayed everyday for 5 days, sampled 6th day; normalized to tubulin
# Method: as §6, §7, §8
# [6] = tested on: PgPPDS (protopanaxadiol synthase); assay: Quantitative RT-PCR of PgPPDS in ginseng leaf after MeJA spraying; type: in vivo, Panax ginseng; conditions: ginseng leaves, 200 μM MeJA sprayed everyday for 5 days, sampled 6th day; normalized to tubulin
# Method: as §6, §7, §8
# [7] = tested on: PgPPTS (protopanaxatriol synthase); assay: Quantitative RT-PCR of PgPPTS in ginseng leaf after MeJA spraying; type: in vivo, Panax ginseng; conditions: ginseng leaves, 200 μM MeJA sprayed everyday for 5 days, sampled 6th day; normalized to tubulin
# Method: as §6, §7, §8
# ginseng = assay: Concentrations of 4 major ginsenosides after spraying MeJA onto the leaf of ginseng; type: in vivo, Panax ginseng
# Excerpt: MeJA was sprayed on the leaf everyday for a total of 5 days, and on the 6th day after the start of the treatment, samples were collected for the expression analysis. […] Error bars show a standard deviation (SD) of three biological replicates; and
# as §8
# In this regard, the concentrations of 4 major ginsenosides were measured after spraying MeJA onto the leaf of ginseng. The treatment of MeJA increased the concentrations of two PPD-type ginsenosides, Rd and Rb1, by 1.55 and 1.14 times respectively (FIG. 6c). In addition, the treatment of MeJA increased the concentrations of two PPT-type ginsenosides, Rg1 and Re, by 2.61 and 1.45 times respectively.
SMILES,ginsenoside into which the substrate is converted by PgUGT74A1 (PgUGT74A1 [1]; HPLC),ginsenoside into which the substrate is converted by PgUGT74A1 (PgUGT74A1 [1]; TLC),ginsenoside into which the substrate is converted by PgUGT94B1 (PgUGT94B1 [2]; HPLC),ginsenoside into which the substrate is converted by PgUGT74A1 plus PgUGT94B1 (PgUGT74A1 and PgUGT94B1),ginsenoside into which the substrate is converted by PgUGT94B1 (PgUGT94B1 [2]; TLC),other results
"CC(C)=CCCC(C)(O)[C@H]1CC[C@]2(C)[C@@H]1[C@H](O)C[C@@H]1[C@@]3(C)CC[C@H](O)C(C)(C)[C@@H]3CC[C@]12C (stereo in doubt) [PPD, Protopanaxadiol]",ginsenoside Rh2,ginsenoside Rh2,did not convert,Rg3,–,"glycosylation by PgUGT74A1 of the hydroxyl groups at the C-12 and C-20 positions (PgUGT74A1 [1]; regioselectivity, positions other than C-3 of PPD): not glycosylated"
"CC(C)=CCC[C@](C)(O[C@@H]1O[C@H](CO)[C@@H](O)[C@H](O)[C@H]1O)[C@H]1CC[C@]2(C)[C@@H]1[C@H](O)C[C@@H]1[C@@]3(C)CC[C@H](O)C(C)(C)[C@@H]3CC[C@]12C [C-K, Compound K]",–,ginsenoside F2,did not convert,Rd,–,–
"CC/C=C\C[C@H]1C(=O)CC[C@@H]1CC(=O)OC [MeJA, Methyl (1R,2R)-3-Oxo-2-(2Z)-2-pentenyl-cyclopentaneacetate]",–,–,–,–,–,expression level of PgUGT74A1 (PgUGT74A1 [3]): higher expression level; expression level of PgUGT94B1 (PgUGT94B1 [4]): higher expression level; expression of PgDS [5]: enhanced; expression of PgPPDS [6]: enhanced; expression of PgPPTS [7]: not induced; increase of the concentration of ginsenoside Rb1 (ginseng; PPD-type ginsenoside): 1.14 times; increase of the concentration of ginsenoside Rd (ginseng; PPD-type ginsenoside): 1.55 times; increase of the concentration of ginsenoside Re (ginseng; PPT-type ginsenoside): 1.45 times; increase of the concentration of ginsenoside Rg1 (ginseng; PPT-type ginsenoside): 2.61 times
"CC(C)=CCC[C@](C)(O)[C@H]1CC[C@]2(C)[C@@H]1[C@H](O)C[C@@H]1[C@@]3(C)CC[C@H](O)C(C)(C)[C@@H]3[C@@H](O)C[C@]12C [PPT, Protopanaxatriol]",–,–,–,–,–,"glycosylation by PgUGT74A1 of the hydroxyl groups at the C-3, C-6, C-12 and C-20 positions (PgUGT74A1 [1]; regioselectivity, PPT): not glycosylated"
CC(C)=CCC[C@](C)(O[C@@H]1O[C@H](CO)[C@@H](O)[C@H](O)[C@H]1O)[C@H]1CC[C@]2(C)[C@@H]1[C@H](O)C[C@@H]1[C@@]3(C)CC[C@H](O[C@@H]4O[C@H](CO)[C@@H](O)[C@H](O)[C@H]4O)C(C)(C)[C@@H]3CC[C@]12C [ginsenoside F2],did not convert,–,Rd,–,ginsenoside Rd,–
CC(C)=CCC[C@](C)(O)[C@H]1CC[C@]2(C)[C@@H]1[C@H](O)C[C@@H]1[C@@]3(C)CC[C@H](O[C@@H]4O[C@H](CO)[C@@H](O)[C@H](O)[C@H]4O)C(C)(C)[C@@H]3CC[C@]12C [ginsenoside Rh2],did not convert,–,ginsenoside Rg3,–,ginsenoside Rg3,–
